This note sets out measurements from patent publication US12269816B2, “Benzothiophene compound, preparation method therefor and use thereof” (SICHUAN KELUN-BIOTECH BIOPHARMACEUTICAL CO., LTD., priority 2019, dated 2025).

The assay concerns MC38 mouse colon cancer allograft tumor model. Put plainly: In vivo efficacy in the MC38 mouse colon cancer allograft tumor model. The following applies: 10 μg i.t.; for Tumor Volume, Day 0, Dosing side / Tumor Volume, Day 0, Non-dosing side: baseline at start of dosing; for Tumor Volume, Day 0, Dosing side / Tumor Volume, Day 0, Non-dosing side / Tumor Volume, Day 18, Dosing side / Tumor Volume, Day 18, Non-dosing side: mean ± SEM, n = 8; for Tumor Volume, Day 0, Dosing side / Tumor Volume, Day 0, Non-dosing side / Tumor Volume, Day 18, Dosing side / TGIvolume, Day 18, Dosing side: BIW×2; for Tumor Volume, Day 18, Non-dosing side / TGIvolume, Day 18, Non-dosing side: BIW×2 on the other side; for TGIvolume, Day 18, Dosing side / TGIvolume, Day 18, Non-dosing side: tumor volume inhibitory rate. As for the experimental part: In this experimental example, the changes in tumor volume and tumor weight of an MC38 mouse colon cancer transplanted tumor model were measured and recorded after intratumoral injection (i.t.) of compound 6 or compound 8, so as to test the efficacy of each test compound.
Experimental cell strain: Mouse colon cancer MC38 cells (Nanjing Cobioer) were cultured in a 37° C., 5% CO2 incubator (medium: RPMI-1640 (Hyclone) containing 10% fetal bovine serum (Gibco)). Trypsin-EDTA (Hyclone) was used for routine digestion and passage. When the cells were in the exponential phase with a saturation of […], the cells were collected and counted.
Experimental animals: C57BL/6J mice, 6-8 weeks old, female, weighing 18-20 grams. All mice were purchased from Beijing Vital River Laboratory Animal Technology Co., Ltd., and kept in a special pathogen-free (SPF) animal room.
The MC38 cells were resuspended in phosphate buffered saline (PBS) at a density of 5×10^6 cells/mL. 0.1 mL of PBS (containing 5×10^5 MC38 cells) was inoculated subcutaneously at the position of scapula at the right and left back of each mouse. When the average volume of the tumors at the left and right sides reached about 100 mm^3, the mice were randomly grouped according to the volumes of the tumors at the left and right sides.
When the average volume of the subcutaneously transplanted tumors reached about 100 mm^3, the mice were randomly grouped according to the volume of the tumors at the left and right sides, with 8 in each group. Administration was performed on the tumors at the right side via intratumoral injection at an administration frequency of BIW×2 for 2 weeks in total, while no administration was performed on the tumors at the left side. After administration, the volumes of tumors at the left and right sides were measured twice a week, and the death of the animals was observed every day.
The anti-tumor efficacy of the test compound was evaluated by the tumor volume inhibitory rate TGIvolume (%). The tumor volume was measured with a vernier caliper. The tumor volume is calculated according to the formula: V=0.5×a×b^2, wherein “a” and “b” represent the long diameter and short diameter of the tumor, respectively. The tumor volume inhibitory rate TGIvolume (%)=[(1−(the average tumor volume at the end of dosing to a dosing group−the average tumor volume at the start of dosing to the dosing group)/(the average tumor volume at the end of dosing to a vehicle control group−the average tumor volume at the start of dosing to the vehicle control group)]×100%. When the tumor volume at the end of dosing was smaller than the tumor volume at the start of dosing (i.e., tumor regression), TGIvolume (%)=[1−(the average tumor volume at the end of dosing to a dosing group−average the tumor volume at the start of dosing to the dosing group)/the average tumor volume at the start of dosing to the dosing group]×100%.
A statistical analysis was performed based on the tumor volume at the end of the experiment using the Graphpad Prism software. A comparison between the two groups was analyzed by Student's t-test. When P<0.05, it was considered as having a significant difference.

SMILES strings stand for the structures.

In the case of `COc1cc2sc(C(=O)CCC(=O)O)cc2cc1OCCCOc1cc2sc(C(=O)N(C)CCC(=O)O)cc2cc1OC` [Compound 6, 4-(5-(3-((2-((2-carboxyethyl)(methyl)carbamoyl)-5-methoxybenzo[b]thiophen-6-yl)oxy)propoxy)-6-methoxybenzo[b]thiophen-2-yl)-4-oxobutanoic acid], the “Tumor Volume, Day 0, Dosing side” value came to 112.09 ± 11.95 mm^3; the “Tumor Volume, Day 0, Non-dosing side” value was 96.07 ± 10.17 mm^3; the “Tumor Volume, Day 18, Dosing side” value is on record as 105.10 ± 74.74 mm^3; the “Tumor Volume, Day 18, Non-dosing side” value stood at 760.69 ± 174.22 mm^3. The “TGIvolume, Day 18, Dosing side” value was 106.24% and the “TGIvolume, Day 18, Non-dosing side” value is 51.09%.

Take `COc1cc2sc(C(=O)CCC(=O)O)cc2cc1OCCCOc1cc2cc(C(=O)N(C)CCC(=O)O)sc2cc1OC` [Compound 8, 4-(5-(3-((2-((2-carboxyethyl)(methyl)carbamoyl)-6-methoxybenzo[b]thiophen-5-yl)oxy)propoxy)-6-methoxybenzo[b]thiophen-2-yl)-4-oxobutanoic Acid]: the “Tumor Volume, Day 0, Dosing side” value came to 113.24 ± 12.33 mm^3; the “Tumor Volume, Day 0, Non-dosing side” value is given as 96.60 ± 11.50 mm^3; the “Tumor Volume, Day 18, Dosing side” value worked out at 0.00 ± 0.00 mm^3; the “Tumor Volume, Day 18, Non-dosing side” value is recorded as 666.08 ± 100.92 mm^3. Besides, the “TGIvolume, Day 18, Dosing side” value worked out at 200.00% and the “TGIvolume, Day 18, Non-dosing side” value came to 58.09%.
